Test results reported in PubChem BioAssay (NCI).
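Five compound concentrations were applied to cells in 96-well plates for 48 hours; endpoints were derived by simple linear interpolation of the resulting dose-response curve. At the GI50, growth is halved. The concentration for full growth arrest is given as TGI.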

What was measured:
Assay in all cases: inhibition of tumour cell growth, NCI panel, 48 h
786-0 renal = system: 786-0 renal
A498 renal = system: A498 renal
A549 NSCLC = system: A549 NSCLC
ACHN renal = system: ACHN renal
BT-549 breast = system: BT-549 breast
CAKI-1 renal = system: CAKI-1 renal
CCRF-CEM leukemia = system: CCRF-CEM leukemia
COLO 205 colon = system: COLO 205 colon
DU-145 prostate = system: DU-145 prostate
HCC-2998 colon = system: HCC-2998 colon
HCT-116 colon = system: HCT-116 colon
HCT-15 colon = system: HCT-15 colon
HL-60(TB) leukemia = system: HL-60(TB) leukemia
HOP-62 NSCLC = system: HOP-62 NSCLC
HOP-92 NSCLC = system: HOP-92 NSCLC
HS 578T breast = system: HS 578T breast
HT29 colon = system: HT29 colon
IGROV1 ovarian = system: IGROV1 ovarian
K-562 leukemia = system: K-562 leukemia
KM12 colon = system: KM12 colon
LOX IMVI melanoma = system: LOX IMVI melanoma
M14 melanoma = system: M14 melanoma
MALME-3M melanoma = system: MALME-3M melanoma
MCF7 breast = system: MCF7 breast
MDA-MB-231 breast = system: MDA-MB-231 breast
MDA-MB-435 = system: MDA-MB-435
MOLT-4 leukemia = system: MOLT-4 leukemia
NCI-H226 lung = system: NCI-H226 lung
NCI-H23 lung = system: NCI-H23 lung
NCI-H460 lung = system: NCI-H460 lung
NCI-H522 lung = system: NCI-H522 lung
NCI/ADR-RES ovarian = system: NCI/ADR-RES ovarian
OVCAR-3 ovarian = system: OVCAR-3 ovarian
OVCAR-4 ovarian = system: OVCAR-4 ovarian
OVCAR-5 ovarian = system: OVCAR-5 ovarian
OVCAR-8 ovarian = system: OVCAR-8 ovarian
PC-3 prostate = system: PC-3 prostate
RPMI-8226 leukemia = system: RPMI-8226 leukemia
RXF 393 renal = system: RXF 393 renal
SF-268 CNS = system: SF-268 CNS
SF-295 CNS = system: SF-295 CNS
SF-539 CNS = system: SF-539 CNS
SK-MEL-2 melanoma = system: SK-MEL-2 melanoma
SK-MEL-28 melanoma = system: SK-MEL-28 melanoma
SK-MEL-5 melanoma = system: SK-MEL-5 melanoma
SK-OV-3 ovarian = system: SK-OV-3 ovarian
SN12C renal = system: SN12C renal
SNB-19 CNS = system: SNB-19 CNS
SR leukemia = system: SR leukemia
SW-620 colon = system: SW-620 colon
T-47D breast = system: T-47D breast
TK-10 renal = system: TK-10 renal
U251 CNS = system: U251 CNS
UACC-257 melanoma = system: UACC-257 melanoma
UACC-62 melanoma = system: UACC-62 melanoma
UO-31 renal = system: UO-31 renal

**Q.** `NC(N)=NCCCCCNc1noc(Cc2c[nH]c3cc(Br)ccc23)n1` was tested. Which GI50 (786-0 renal) did it give?
**A.** 23 µM

**Q.** What about the TGI (786-0 renal) of the same molecule?
**A.** 86.3 µM

**Q.** And the GI50 (A498 renal)?
**A.** > 100 µM

**Q.** What about the TGI (A498 renal) of the same molecule?
**A.** > 100 µM

**Q.** And the GI50 (A549 NSCLC)?
**A.** 14.2 µM

**Q.** What about the TGI (A549 NSCLC) of the same molecule?
**A.** > 100 µM

**Q.** What about the GI50 (ACHN renal) of the same molecule?
**A.** 39.9 µM

**Q.** And the TGI (ACHN renal)?
**A.** > 100 µM

**Q.** What about the GI50 (BT-549 breast) of the same molecule?
**A.** 3.35 µM

**Q.** What about the TGI (BT-549 breast) of the same molecule?
**A.** 14.9 µM

**Q.** And the GI50 (CAKI-1 renal)?
**A.** 66.7 µM

**Q.** What about the TGI (CAKI-1 renal) of the same molecule?
**A.** > 100 µM

**Q.** And the GI50 (CCRF-CEM leukemia)?
**A.** 13.9 µM

**Q.** And the TGI (CCRF-CEM leukemia)?
**A.** 39.5 µM

**Q.** What about the GI50 (COLO 205 colon) of the same molecule?
**A.** 9.77 µM

**Q.** And the TGI (COLO 205 colon)?
**A.** 28.2 µM

**Q.** What about the GI50 (DU-145 prostate) of the same molecule?
**A.** 20.4 µM

**Q.** What about the TGI (DU-145 prostate) of the same molecule?
**A.** > 100 µM

**Q.** And the GI50 (HCC-2998 colon)?
**A.** 6.12 µM

**Q.** And the TGI (HCC-2998 colon)?
**A.** 23.2 µM

**Q.** What about the GI50 (HCT-116 colon) of the same molecule?
**A.** 9.78 µM

**Q.** And the TGI (HCT-116 colon)?
**A.** 37 µM

**Q.** And the GI50 (HCT-15 colon)?
**A.** 60.5 µM

**Q.** And the TGI (HCT-15 colon)?
**A.** > 100 µM

**Q.** And the GI50 (HL-60(TB) leukemia)?
**A.** 7.21 µM

**Q.** What about the TGI (HL-60(TB) leukemia) of the same molecule?
**A.** 28.8 µM

**Q.** What about the GI50 (HOP-62 NSCLC) of the same molecule?
**A.** 5.84 µM

**Q.** And the TGI (HOP-62 NSCLC)?
**A.** 28.4 µM

**Q.** And the GI50 (HOP-92 NSCLC)?
**A.** 2960 nM

**Q.** And the TGI (HOP-92 NSCLC)?
**A.** 46.7 µM

**Q.** What about the GI50 (HS 578T breast) of the same molecule?
**A.** 9.08 µM

**Q.** And the TGI (HS 578T breast)?
**A.** 90.2 µM

**Q.** And the GI50 (HT29 colon)?
**A.** 19.5 µM

**Q.** What about the TGI (HT29 colon) of the same molecule?
**A.** > 100 µM

**Q.** And the GI50 (IGROV1 ovarian)?
**A.** 4.55 µM

**Q.** What about the TGI (IGROV1 ovarian) of the same molecule?
**A.** 19.4 µM

**Q.** What about the GI50 (K-562 leukemia) of the same molecule?
**A.** 9.4 µM

**Q.** And the TGI (K-562 leukemia)?
**A.** 38.6 µM

**Q.** What about the GI50 (KM12 colon) of the same molecule?
**A.** 3.95 µM

**Q.** What about the TGI (KM12 colon) of the same molecule?
**A.** 15.9 µM

**Q.** What about the GI50 (LOX IMVI melanoma) of the same molecule?
**A.** 10.6 µM

**Q.** And the TGI (LOX IMVI melanoma)?
**A.** 45.2 µM

**Q.** And the GI50 (M14 melanoma)?
**A.** 10.8 µM

**Q.** And the TGI (M14 melanoma)?
**A.** 44.3 µM

**Q.** What about the GI50 (MALME-3M melanoma) of the same molecule?
**A.** 8.34 µM

**Q.** And the TGI (MALME-3M melanoma)?
**A.** 35 µM

**Q.** And the GI50 (MCF7 breast)?
**A.** 16.3 µM

**Q.** And the TGI (MCF7 breast)?
**A.** 45 µM

**Q.** And the GI50 (MDA-MB-231 breast)?
**A.** 8.05 µM

**Q.** And the TGI (MDA-MB-231 breast)?
**A.** 30.2 µM

**Q.** And the GI50 (MDA-MB-435)?
**A.** 19.3 µM

**Q.** And the TGI (MDA-MB-435)?
**A.** 62.7 µM

**Q.** And the GI50 (MOLT-4 leukemia)?
**A.** 8.12 µM

**Q.** What about the TGI (MOLT-4 leukemia) of the same molecule?
**A.** 36.3 µM

**Q.** What about the GI50 (NCI-H226 lung) of the same molecule?
**A.** 13.6 µM

**Q.** And the TGI (NCI-H226 lung)?
**A.** 46.9 µM

**Q.** What about the GI50 (NCI-H23 lung) of the same molecule?
**A.** 8.2 µM

**Q.** What about the TGI (NCI-H23 lung) of the same molecule?
**A.** 28.7 µM

**Q.** What about the GI50 (NCI-H460 lung) of the same molecule?
**A.** 12.4 µM

**Q.** And the TGI (NCI-H460 lung)?
**A.** 43.3 µM

**Q.** What about the GI50 (NCI-H522 lung) of the same molecule?
**A.** 13.6 µM

**Q.** What about the TGI (NCI-H522 lung) of the same molecule?
**A.** 46.5 µM

**Q.** What about the GI50 (NCI/ADR-RES ovarian) of the same molecule?
**A.** 40.4 µM

**Q.** And the TGI (NCI/ADR-RES ovarian)?
**A.** > 100 µM

**Q.** And the GI50 (OVCAR-3 ovarian)?
**A.** 4.4 µM

**Q.** And the TGI (OVCAR-3 ovarian)?
**A.** 33.5 µM

**Q.** And the GI50 (OVCAR-4 ovarian)?
**A.** 12.2 µM

**Q.** What about the TGI (OVCAR-4 ovarian) of the same molecule?
**A.** 91.8 µM

**Q.** And the GI50 (OVCAR-5 ovarian)?
**A.** 24.9 µM

**Q.** What about the TGI (OVCAR-5 ovarian) of the same molecule?
**A.** > 100 µM

**Q.** And the GI50 (OVCAR-8 ovarian)?
**A.** 10.4 µM

**Q.** And the TGI (OVCAR-8 ovarian)?
**A.** > 100 µM

**Q.** And the GI50 (PC-3 prostate)?
**A.** 2570 nM

**Q.** What about the TGI (PC-3 prostate) of the same molecule?
**A.** 79.6 µM

**Q.** What about the GI50 (RPMI-8226 leukemia) of the same molecule?
**A.** 6.78 µM

**Q.** What about the TGI (RPMI-8226 leukemia) of the same molecule?
**A.** 47.1 µM

**Q.** What about the GI50 (RXF 393 renal) of the same molecule?
**A.** 20.2 µM

**Q.** And the TGI (RXF 393 renal)?
**A.** > 100 µM

**Q.** And the GI50 (SF-268 CNS)?
**A.** 3.54 µM

**Q.** What about the TGI (SF-268 CNS) of the same molecule?
**A.** 27.8 µM

**Q.** What about the GI50 (SF-295 CNS) of the same molecule?
**A.** 17.8 µM

**Q.** What about the TGI (SF-295 CNS) of the same molecule?
**A.** 56.6 µM

**Q.** What about the GI50 (SF-539 CNS) of the same molecule?
**A.** 12.5 µM

**Q.** And the TGI (SF-539 CNS)?
**A.** 29.5 µM

**Q.** What about the GI50 (SK-MEL-2 melanoma) of the same molecule?
**A.** 22.8 µM

**Q.** And the TGI (SK-MEL-2 melanoma)?
**A.** 57.8 µM

**Q.** What about the GI50 (SK-MEL-28 melanoma) of the same molecule?
**A.** 16.3 µM

**Q.** What about the TGI (SK-MEL-28 melanoma) of the same molecule?
**A.** 36.7 µM

**Q.** What about the GI50 (SK-MEL-5 melanoma) of the same molecule?
**A.** 4.52 µM

**Q.** And the TGI (SK-MEL-5 melanoma)?
**A.** 16.2 µM

**Q.** What about the GI50 (SK-OV-3 ovarian) of the same molecule?
**A.** 24 µM

**Q.** What about the TGI (SK-OV-3 ovarian) of the same molecule?
**A.** > 100 µM

**Q.** And the GI50 (SN12C renal)?
**A.** 3.87 µM

**Q.** And the TGI (SN12C renal)?
**A.** 18.8 µM

**Q.** What about the GI50 (SNB-19 CNS) of the same molecule?
**A.** 3.62 µM

**Q.** What about the TGI (SNB-19 CNS) of the same molecule?
**A.** 20.4 µM

**Q.** And the GI50 (SR leukemia)?
**A.** 13.8 µM

**Q.** What about the TGI (SR leukemia) of the same molecule?
**A.** 40 µM

**Q.** And the GI50 (SW-620 colon)?
**A.** 20 µM

**Q.** What about the TGI (SW-620 colon) of the same molecule?
**A.** > 100 µM

**Q.** What about the GI50 (T-47D breast) of the same molecule?
**A.** 6.04 µM

**Q.** What about the TGI (T-47D breast) of the same molecule?
**A.** 32.3 µM

**Q.** And the GI50 (TK-10 renal)?
**A.** 49.4 µM

**Q.** And the TGI (TK-10 renal)?
**A.** > 100 µM

**Q.** And the GI50 (U251 CNS)?
**A.** 2780 nM

**Q.** And the TGI (U251 CNS)?
**A.** 14.9 µM

**Q.** What about the GI50 (UACC-257 melanoma) of the same molecule?
**A.** 14.6 µM

**Q.** And the TGI (UACC-257 melanoma)?
**A.** 80.3 µM

**Q.** And the GI50 (UACC-62 melanoma)?
**A.** 7.48 µM

**Q.** And the TGI (UACC-62 melanoma)?
**A.** 28.1 µM

**Q.** What about the GI50 (UO-31 renal) of the same molecule?
**A.** 20.2 µM

**Q.** And the TGI (UO-31 renal)?
**A.** > 100 µM
